Results reported in patent US20230374025A1, “FGFR INHIBITOR COMPOUND AND USE THEREOF” (SHENZHEN KANGSU PHARMACEUTICAL TECHNOLOGY CO., LTD., priority 2021, published 2023).

Key:
Type in all cases: biochemical
VEGFR2 = target: T1, VEGFR2 (Homo sapiens, UniProt P35968); test: Assay I: VEGFR2 kinase inhibition (HTRF KinEASE-TK); settings: ATP 5 μM, substrate TK 1 μM
T1 construct: purchased Carna 08-191
Experimental: (§1) Assay I: Determination of Inhibitory Activity Against FGFR Mutants
(§2) 1. Reagents and Equipment
(§3) 2.1 Preparation of 1× Kinase Reaction Buffer:
(§4) 1× Kinase reaction buffer was formulated with 1× volume of 5× kinase reaction buffer and 4× volume of water; 5 mM MgCl2; and 1 mM DTT.
(§5) 2.3 Screening of Compounds:
(§6) 1. Diluting a compound 4-fold in a dilution plate with DMSO, with a starting compound concentration of 2 mM.
(§7) 2. Diluting the compound 40-fold into 1× kinase reaction buffer and shaking it on a shaker for 20 minutes.
3. Formulating 2×FGFR1 V561M/FGFR2 V564F/FGFR3 K650E/VEGFR2 with 1× of enzyme reaction buffer.
4. Adding 2 μl FGFR1 V561M/FGFR2 V564F/FGFR3 K650E/VEGFR2 kinase (formulated in step 3) to each well of the reaction plate.
(§8) 5. Adding 1 μl of the compound diluted in buffer to each well, sealing the plate with a sealing membrane and centrifuging the plate at 1000 g for 30 seconds and leaving it at room temperature for 10 minutes.
(§9) 6. Formulating 2.5×TK-substrate-biotin and ATP mixture with 1× enzyme reaction buffer and adding 2 μl of K-substrate-biotin/ATP mixture to the reaction plate.
(§10) 7. Sealing the plate with a sealing membrane and centrifuging the plate at 1000 g for 30 seconds and allowing it to react at room temperature for 50 minutes.
(§11) 8. Formulating 4× Sa-XL 665 (250 nM) with HTRF assay buffer.
(§12) 9. Adding 5 μl Sa-XL 665 and 5 μl TK-Antibody-Cryptate to each well, centrifuging it at 1000 g for 30 seconds, and allowing it to react for 1 hour at room temperature.
(§13) 10. Reading fluorescence signals at 615 nm (Cryptate) and 665 nm (XL665) with Biotek.
(§14) 3.1 Calculation of the ratio for each well: the ratio was calculated as 665/615 nm.
(§15) 3.3 Calculation of IC50 and plotting of inhibition curves for the compounds.
(§16) The IC50 (half inhibition concentration) of a compound was obtained using the following non-linear fitting equation, wherein data analysis was performed using Graphpad 6.0 software.
(§17) Y=Bottom+(Top−Bottom)/(1+10^((Log IC50−X)*Hill Slope)) • X: log value of compound concentration; and Y: inhibition rate (% inh)
(§18) 3.4 Validation of Results
(§19) Data were exported from Envision and analyzed manually. The ratios were converted to inhibition rates and IC50 was calculated by Prism GraphPad 6.0 from the inhibition rates. IC50 was calculated again by the ratios to verify accuracy of the results.
Positive control IC50 was within 3 times of the average value

FGFR1 V561M = target: T2, FGFR1 V561M (Homo sapiens, UniProt P11362, V561M); test: Assay I: inhibitory activity against FGFR mutants (HTRF KinEASE-TK); settings: ATP 5 μM, substrate TK 1 μM
T2 construct: purchased Signalchem F04-13G
Experimental: as §1, §2, §3, §4, §5, §6, §7, §8, §9, §10, §11, §12, §13, §14, §15, §16, §17, §18, §19

FGFR2 V564F = target: T3, FGFR2 V564F (Homo sapiens, UniProt P21802, V564F); test: as above; settings: ATP 10 μM, substrate TK 1 μM
T3 construct: purchased Signalchem F05-12FG
Experimental: as §1, §2, §3, §4, §5, §6, §7, §8, §9, §10, §11, §12, §13, §14, §15, §16, §17, §18, §19

FGFR3 V555M = target: T4, FGFR3 V555M (Homo sapiens, UniProt P22607, V555M); test: as above; settings: ATP 20 μM, substrate TK 1 μM
T4 construct: purchased Signalchem F06-12GG
Experimental: as §1, §2, §3, §4, §5, §6, §7, §8, §9, §10, §11, §12, §13, §14, §15, §16, §17, §18, §19

FGFR3 = target: T5, FGFR3 (Homo sapiens, UniProt P22607); test: Assay II: inhibitory activity against wild-type FGFR (HTRF KinEASE-TK); settings: ATP 50 μM, substrate TK 1 μM
T5 construct: purchased Carna 08-135
Experimental: (§20) Assay II: Determination of Inhibitory Activity Against Wild-Type FGFR
as §2
(§21) 2. Experimental Steps PGP-5T
as §3, §4, §5, §6, §7
(§22) 3. Formulating 2×FGFR1/FGFR2/FGFR3 with 1× of enzyme reaction buffer.
(§23) 4. Adding 2 μl FGFR1/FGFR2/FGFR3 kinase (formulated in step 3) to each well of the reaction plate.
as §8
(§24) 6. Formulating 2.5×TK-substrate-biotin and ATP mixture with 1× enzyme reaction buffer and add 2 μl of K-substrate-biotin/ATP mixture to the reaction plate.
as §10, §11, §12, §13, §14, §15, §16, §17, §18, §19

FGFR1 = target: T6, FGFR1 (Homo sapiens, UniProt P11362); test: as above; settings: ATP 50 μM, substrate TK 1 μM
T6 construct: purchased Carna 08-133
Experimental: as §20, §2, §21, §3, §4, §5, §6, §7, §22, §23, §8, §24, §10, §11, §12, §13, §14, §15, §16, §17, §18, §19

FGFR2 = target: T7, FGFR2 (Homo sapiens, UniProt P21802); test: as above; settings: ATP 50 μM, substrate TK 1 μM
T7 construct: purchased Carna 08-134
Experimental: as §20, §2, §21, §3, §4, §5, §6, §7, §22, §23, §8, §24, §10, §11, §12, §13, §14, §15, §16, §17, §18, §19

T6 sequence (P11362 22-822): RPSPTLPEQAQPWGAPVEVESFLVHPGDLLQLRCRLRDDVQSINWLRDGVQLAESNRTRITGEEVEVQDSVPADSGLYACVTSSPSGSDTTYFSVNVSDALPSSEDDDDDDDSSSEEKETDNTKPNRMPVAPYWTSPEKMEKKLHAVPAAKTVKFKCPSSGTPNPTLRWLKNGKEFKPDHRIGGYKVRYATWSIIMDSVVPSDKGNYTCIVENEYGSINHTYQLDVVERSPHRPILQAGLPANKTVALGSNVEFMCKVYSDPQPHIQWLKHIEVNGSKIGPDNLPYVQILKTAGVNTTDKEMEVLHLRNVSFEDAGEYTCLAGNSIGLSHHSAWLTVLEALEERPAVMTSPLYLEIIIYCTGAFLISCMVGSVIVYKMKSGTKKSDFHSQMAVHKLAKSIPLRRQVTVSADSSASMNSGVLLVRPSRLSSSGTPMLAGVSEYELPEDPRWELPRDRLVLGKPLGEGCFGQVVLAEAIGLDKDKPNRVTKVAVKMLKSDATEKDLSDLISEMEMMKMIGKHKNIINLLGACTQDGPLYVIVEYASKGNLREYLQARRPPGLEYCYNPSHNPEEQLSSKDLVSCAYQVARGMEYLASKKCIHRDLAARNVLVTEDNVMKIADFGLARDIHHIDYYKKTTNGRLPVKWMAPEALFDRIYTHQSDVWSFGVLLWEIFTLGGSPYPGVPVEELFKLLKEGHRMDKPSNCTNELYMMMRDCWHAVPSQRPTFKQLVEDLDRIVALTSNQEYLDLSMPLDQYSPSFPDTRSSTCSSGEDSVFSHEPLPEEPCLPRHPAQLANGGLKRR
T4 sequence (P22607 397-806 V555M limits assumed): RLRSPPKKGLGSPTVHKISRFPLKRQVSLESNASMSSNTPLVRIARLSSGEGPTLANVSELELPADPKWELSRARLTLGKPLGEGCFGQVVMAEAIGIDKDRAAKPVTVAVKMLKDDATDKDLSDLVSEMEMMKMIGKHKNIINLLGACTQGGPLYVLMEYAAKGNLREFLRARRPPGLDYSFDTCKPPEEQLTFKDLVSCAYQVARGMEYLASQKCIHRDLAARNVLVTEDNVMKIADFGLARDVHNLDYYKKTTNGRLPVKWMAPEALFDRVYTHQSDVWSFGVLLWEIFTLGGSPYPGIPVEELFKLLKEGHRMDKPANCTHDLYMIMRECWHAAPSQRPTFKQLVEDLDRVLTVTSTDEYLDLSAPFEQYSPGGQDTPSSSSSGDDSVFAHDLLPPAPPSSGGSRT
T2 sequence (P11362 22-822 V561M): as the sequence (P11362 22-822) above, with V540M counted along it
T7 sequence (P21802 22-821): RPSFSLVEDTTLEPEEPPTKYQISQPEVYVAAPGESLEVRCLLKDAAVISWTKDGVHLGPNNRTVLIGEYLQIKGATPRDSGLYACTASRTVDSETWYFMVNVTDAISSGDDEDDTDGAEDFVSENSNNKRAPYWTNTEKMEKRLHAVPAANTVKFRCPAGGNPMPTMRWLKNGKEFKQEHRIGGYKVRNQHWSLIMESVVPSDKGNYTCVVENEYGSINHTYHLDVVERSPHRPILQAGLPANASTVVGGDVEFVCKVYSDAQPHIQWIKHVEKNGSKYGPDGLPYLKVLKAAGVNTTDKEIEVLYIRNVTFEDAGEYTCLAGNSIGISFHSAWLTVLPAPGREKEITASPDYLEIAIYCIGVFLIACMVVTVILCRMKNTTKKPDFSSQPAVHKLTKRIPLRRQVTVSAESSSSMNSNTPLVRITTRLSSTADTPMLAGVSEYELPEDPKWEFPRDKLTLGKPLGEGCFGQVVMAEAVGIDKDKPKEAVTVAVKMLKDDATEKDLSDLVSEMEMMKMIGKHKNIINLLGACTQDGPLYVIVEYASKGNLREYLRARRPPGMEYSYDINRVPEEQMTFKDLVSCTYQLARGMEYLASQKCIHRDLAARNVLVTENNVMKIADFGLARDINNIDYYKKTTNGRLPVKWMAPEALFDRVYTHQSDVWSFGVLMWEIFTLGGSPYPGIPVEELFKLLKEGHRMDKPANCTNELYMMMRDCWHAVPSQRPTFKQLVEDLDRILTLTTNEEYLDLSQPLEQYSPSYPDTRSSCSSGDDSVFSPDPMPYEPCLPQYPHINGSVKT
T5 sequence (P22607 23-806): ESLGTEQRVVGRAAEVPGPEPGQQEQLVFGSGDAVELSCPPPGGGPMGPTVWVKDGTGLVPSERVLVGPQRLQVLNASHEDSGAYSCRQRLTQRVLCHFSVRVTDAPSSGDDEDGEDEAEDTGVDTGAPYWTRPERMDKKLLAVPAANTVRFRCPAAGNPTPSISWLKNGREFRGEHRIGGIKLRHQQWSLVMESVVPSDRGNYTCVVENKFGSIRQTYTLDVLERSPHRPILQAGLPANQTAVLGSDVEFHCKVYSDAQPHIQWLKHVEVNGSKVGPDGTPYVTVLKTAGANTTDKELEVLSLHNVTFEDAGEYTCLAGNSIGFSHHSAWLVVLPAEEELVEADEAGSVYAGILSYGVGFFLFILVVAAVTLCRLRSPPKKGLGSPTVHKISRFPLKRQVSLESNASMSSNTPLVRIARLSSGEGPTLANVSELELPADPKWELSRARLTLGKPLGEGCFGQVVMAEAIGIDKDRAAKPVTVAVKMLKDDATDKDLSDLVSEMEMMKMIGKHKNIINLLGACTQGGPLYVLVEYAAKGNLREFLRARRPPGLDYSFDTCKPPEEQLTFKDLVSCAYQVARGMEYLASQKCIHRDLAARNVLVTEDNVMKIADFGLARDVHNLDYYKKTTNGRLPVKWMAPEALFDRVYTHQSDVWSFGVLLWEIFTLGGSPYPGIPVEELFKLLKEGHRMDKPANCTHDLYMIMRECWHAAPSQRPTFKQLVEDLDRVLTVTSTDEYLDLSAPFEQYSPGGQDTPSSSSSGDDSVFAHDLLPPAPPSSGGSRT
T3 sequence (P21802 22-821 V564F): as the sequence (P21802 22-821) above, with V543F counted along it
T1 sequence (P35968 20-1356): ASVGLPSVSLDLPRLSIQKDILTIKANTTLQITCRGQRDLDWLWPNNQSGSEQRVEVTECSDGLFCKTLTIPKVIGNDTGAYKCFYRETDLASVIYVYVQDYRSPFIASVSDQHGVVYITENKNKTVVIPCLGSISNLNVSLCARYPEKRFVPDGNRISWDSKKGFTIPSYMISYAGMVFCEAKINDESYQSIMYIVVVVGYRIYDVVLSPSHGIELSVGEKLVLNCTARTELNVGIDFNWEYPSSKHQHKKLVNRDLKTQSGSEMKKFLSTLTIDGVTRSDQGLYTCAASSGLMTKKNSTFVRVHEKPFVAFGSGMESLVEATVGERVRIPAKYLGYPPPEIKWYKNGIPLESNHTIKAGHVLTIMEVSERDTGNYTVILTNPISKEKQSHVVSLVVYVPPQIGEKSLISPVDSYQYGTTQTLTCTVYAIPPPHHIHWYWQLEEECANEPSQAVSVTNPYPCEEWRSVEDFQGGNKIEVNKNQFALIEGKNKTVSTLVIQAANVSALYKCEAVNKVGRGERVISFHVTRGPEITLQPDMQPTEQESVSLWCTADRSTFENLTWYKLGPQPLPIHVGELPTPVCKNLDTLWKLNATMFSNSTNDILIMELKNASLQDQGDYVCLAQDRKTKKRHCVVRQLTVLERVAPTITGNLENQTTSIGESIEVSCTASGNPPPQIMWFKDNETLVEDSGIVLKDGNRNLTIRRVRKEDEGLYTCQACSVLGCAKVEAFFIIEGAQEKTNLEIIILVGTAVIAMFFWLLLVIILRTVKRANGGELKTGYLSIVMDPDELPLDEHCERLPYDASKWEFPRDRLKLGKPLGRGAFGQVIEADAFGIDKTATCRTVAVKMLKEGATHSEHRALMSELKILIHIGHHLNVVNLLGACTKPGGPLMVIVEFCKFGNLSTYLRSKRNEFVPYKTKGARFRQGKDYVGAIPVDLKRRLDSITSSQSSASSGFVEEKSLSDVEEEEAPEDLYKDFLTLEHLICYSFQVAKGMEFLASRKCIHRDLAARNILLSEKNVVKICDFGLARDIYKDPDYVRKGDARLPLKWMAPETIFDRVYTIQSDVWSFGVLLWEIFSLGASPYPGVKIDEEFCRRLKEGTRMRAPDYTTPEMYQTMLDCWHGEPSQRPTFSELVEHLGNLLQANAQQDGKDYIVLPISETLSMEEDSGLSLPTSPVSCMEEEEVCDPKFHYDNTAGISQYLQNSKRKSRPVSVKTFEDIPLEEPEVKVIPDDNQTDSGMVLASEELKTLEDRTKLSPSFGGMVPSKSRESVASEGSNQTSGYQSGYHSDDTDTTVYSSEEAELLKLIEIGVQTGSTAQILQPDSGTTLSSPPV

| IC50 (VEGFR2) [nM] | IC50 (FGFR1 V561M) [nM] | IC50 (FGFR2 V564F) [nM] | IC50 (FGFR3 V555M) [nM] | IC50 (FGFR3) [nM] | IC50 (FGFR1) [nM] | IC50 (FGFR2) [nM] | SMILES |
| --- | --- | --- | --- | --- | --- | --- | --- |
| 7.6 | 0.81 | 0.36 | 0.18 |  |  |  | C[C@@H](Oc1ccc2[nH]nc(-c3nc4c([nH]3)CN(C(=O)[C@@H]3CCCN3C)C4)c2c1)c1c(Cl)cncc1Cl [Compound 45, 5-((R)-1-(3,5-dichloropyridin-4-yl)ethoxy)-3-(5-(methyl-L-prolinyl)-1,4,5,6-tetrahydropyrrolo[3,4-d]imidazol-2-yl)-1H-indazole] |
| 1.7 | 0.46 | 0.29 | 0.27 |  |  |  | C[C@@H](Oc1ccc2[nH]nc(-c3nc4c([nH]3)CN(C(=O)N(C)C)C4)c2c1)c1c(Cl)cncc1Cl [Compound 34, (R)-2-(5-(1-(3,5-dichloropyridin-4-yl)ethoxy)-1H-indazol-3-yl)-N,N-dimethyl-4,6-dihydropyrrolo[3,4-d]imidazole-5(1H)-carboxamide] |
| 14 | 0.67 | 0.15 | 0.1 |  |  |  | CC(Oc1ccc2[nH]nc(-c3nc4c([nH]3)CN(C(=O)CN3CCC(O)C3)C4)c2c1)c1c(Cl)cncc1Cl (centres unmarked) [Compound 31, 1-(2-(5-(1-(3,5-dichloropyridin-4-yl)ethoxy)-1H-indazol-3-yl)-4,6-dihydropyrrolo[3,4-d]imidazol-5(1H)-yl)-2-(3-hydroxypyrrolidin-1-yl)ethan-1-one] |
| 27.5 | 2.4 | 1.4 | 4.6 |  |  |  | CC(Oc1ccc2[nH]nc(-c3nc4c([nH]3)CN(C(=O)OCCC#N)C4)c2c1)c1c(Cl)cncc1Cl (centres unmarked) [Compound 24, 2-cyanoethyl 2-(5-(1-(3,5-dichloropyridin-4-yl)ethoxy)-1H-indazol-3-yl)-4,6-dihydropyrrolo[3,4-d]imidazole-5(1H)-carboxylate] |
| 96 | 0.4 | 0.3 | 0.6 |  |  |  | CC(Oc1ccc2[nH]nc(-c3nc4c([nH]3)CN(S(=O)(=O)C(C)C)C4)c2c1)c1c(Cl)cncc1Cl (centres unmarked) [Compound 30, 5-(1-(3,5-dichloropyridin-4-yl)ethoxy)-3-(5-(isopropylsulfonyl)-1,4,5,6-tetrahydropyrrolo[3,4-d]imidazol-2-yl)-1H-indazole] |
| 2.5 | 0.29 | 0.21 | 0.14 |  |  |  | C[C@@H](Oc1ccc2[nH]nc(-c3nc4c([nH]3)CN(C(=O)[C@@H]3CCCCN3C)C4)c2c1)c1c(Cl)cncc1Cl [Compound 47, (2-(5-((R)-1-(3,5-dichloropyridin-4-yl)ethoxy)-1H-indazol-3-yl)-4,6-dihydropyrrolo[3,4-d]imidazol-5(1H)-yl)((S)-1-methylpiperidin-2-yl)ketone] |
| 10.3 | 1 | 0.18 | 0.33 |  |  |  | C[C@@H](Oc1ccc2[nH]nc(-c3nc4c([nH]3)CN(C(=O)CN3CC[C@H](O)C3)C4)c2c1)c1c(Cl)cncc1Cl [Compound 42, 1-(2-(5-((R)-1-(3,5-Dichloropyridin-4-yl)ethoxy)-1H-indazol-3-yl)-4,6-dihydropyrrolo[3,4-d]imidazol-5(1H)-yl)-2-((S)-3-hydroxypyrrolidin-1-yl)ethan-1-one] |
| 15.7 | 0.75 | 0.19 | 0.15 |  |  |  | C[C@@H](Oc1ccc2[nH]nc(-c3nc4c([nH]3)CN(C3CCCN(C)C3)C4)c2c1)c1c(Cl)cncc1Cl (stereo partly drawn) [Compound 38, 5-((R)-1-(3,5-Dichloropyridin-4-yl)ethoxy)-3-(5-(1-methylpiperidin-3-yl)-1,4,5,6-tetrahydropyrrolo[3,4-d]imidazol-2-yl)-1H-indazole] |

Continued, compound first:

| SMILES | IC50 (VEGFR2) [nM] | IC50 (FGFR1 V561M) [nM] | IC50 (FGFR2 V564F) [nM] | IC50 (FGFR3 V555M) [nM] | IC50 (FGFR3) [nM] | IC50 (FGFR1) [nM] | IC50 (FGFR2) [nM] |
| --- | --- | --- | --- | --- | --- | --- | --- |
| CC(Oc1ccc2[nH]nc(-c3nc4c([nH]3)CN(C(=O)N3CCN(C)CC3)CC4)c2c1)c1c(Cl)cncc1Cl (centres unmarked) [Compound 5, (2-(5-(1-(3,5-dichloropyridin-4-yl)ethoxy)-1H-indazol-3-yl)-3,4,6,7-tetrahydro-5H-imidazo[4,5-c]pyridin-5-yl)(4-methylpiperazin-1-yl)ketone] | 0.75 | 0.58 | 0.36 | 0.23 | 3.8 | 1.8 | 2.1 |
| CC(Oc1ccc2[nH]nc(-c3nc4c([nH]3)CN(C(=O)N3CCOCC3)C4)c2c1)c1c(Cl)cncc1Cl (centres unmarked) [Compound 8, (2-(5-(1-(3,5-dichloropyridin-4-yl)ethoxy)-1H-indazol-3-yl)-4,6-dihydropyrrolo[3,4-d]imidazol-5(1H)-yl)(morpholinyl)ketone] | 2.1 | 0.33 | 0.36 | 0.45 | 4.5 | 4.1 | 2.8 |
| CC(Oc1ccc2[nH]nc(-c3nc4c([nH]3)CN(C(=O)N3CCN(C)CC3)C4)c2c1)c1c(Cl)cncc1Cl (centres unmarked) [Compound 1, (2-(5-(1-(3,5-dichloropyridin-4-yl)ethoxy)-1H-indazol-3-yl)-4,6-dihydropyrrolo[3,4-d]imidazol-5(1H)-yl)(4-methylpiperazin-1-yl)ketone] | 1 | 0.26 | 0.34 | 0.34 | 4.1 | 2.7 | 2.9 |
| CC(Oc1ccc2[nH]nc(-c3nc4c([nH]3)CN(C)C4)c2c1)c1c(Cl)cncc1Cl (centres unmarked) [Compound 11, 5-(1-(3,5-dichloropyridin-4-yl)ethoxy)-3-(5-methyl-1,4,5,6-tetrahydropyrrolo[3,4-d]imidazol-2-yl)-1H-indazole] | 25.6 | 0.46 | 1.3 | 1.1 | 0.6 | 1.7 | 0.95 |
| CC(Oc1ccc2[nH]nc(-c3nc4c([nH]3)CNC4)c2c1)c1c(Cl)cncc1Cl (centres unmarked) [Compound 19, 5-(1-(3,5-dichloropyridin-4-yl)ethoxy)-3-(1,4,5,6-tetrahydropyrrolo[3,4-d]imidazol-2-yl)-1H-indazole] | 31 | 0.6 | 0.59 | 0.76 |  |  |  |
| CC(Oc1ccc2[nH]nc(-c3nc4c([nH]3)CN(C3CCC(O)CC3)C4)c2c1)c1c(Cl)cncc1Cl (centres unmarked) [Compound 22, 4-(2-(5-(1-(3,5-dichloropyridin-4-yl)ethoxy)-1H-indazol-3-yl)-4,6-dihydropyrrolo[3,4-d]imidazol-5(1H)-yl)cyclohexan-1-ol] | 11.7 | 1.8 | 0.76 | 0.91 |  |  |  |
| CC(Oc1ccc2[nH]nc(-c3nc4c([nH]3)CN(CC3CCN(C)CC3)C4)c2c1)c1c(Cl)cncc1Cl (centres unmarked) [Compound 2, 5-(1-(3,5-dichloropyridin-4-yl)ethoxy)-3-(5-((1-methylpiperidin-4-yl)methyl)-1,4,5,6-tetrahydropyrrolo[3,4-d]imidazol-2-yl)-1H-indazole] | 2.6 | 0.21 | 0.1 | 0.05 |  |  |  |
| CC(Oc1ccc2[nH]nc(-c3nc4c([nH]3)CN(S(=O)(=O)c3cccnc3)C4)c2c1)c1c(Cl)cncc1Cl (centres unmarked) [Compound 7, 5-(1-(3,5-dichloropyridin-4-yl)ethoxy)-3-(5-(pyridin-3-ylsulfonyl)-1,4,5,6-tetrahydropyrrolo[3,4-d]imidazol-2-yl)-1H-indazole] | 42.9 | 1.6 | 3.1 | 4 |  |  |  |
| CC(Oc1ccc2[nH]nc(-c3nc4c([nH]3)CN(C3CC(O)C3)C4)c2c1)c1c(Cl)cncc1Cl (centres unmarked) [Compound 21, 3-(2-(5-(1-(3,5-dichloropyridin-4-yl)ethoxy)-1H-indazol-3-yl)-4,6-dihydropyrrolo[3,4-d]imidazol-5(1H)-yl)cyclobutan-1-ol] | 26 | 0.97 | 0.66 | 0.64 |  |  |  |
